Reference: US20240389589A1, “CORROSION INHIBITORS FOR NITROGEN INHIBITOR FORMULATION” (Verdesian Life Sciences U.S., LLC, priority 2021, published 2024)

Assays:
[1] = Formation of solutions of nitrapyrin salts at 20% w/w nitrapyrin and grading of solutions; type: physicochemical; set-up: key: 5: Fully dissolved; 4: Mostly dissolved; 3: Mostly not dissolved; 2: Not dissolved; 1: Additional precipitate
Description: Example 2. Formation of Solutions of Nitrapyrin Salts and Grading of Solutions

[2] = Nitrapyrin volatilization: weight loss on a heated balance at 100° C.; type: physicochemical; details: for weight as a percent of original weight: heated balance 100° C.; for nitrapyrin sulfolane volatility ratio: nitrapyrin without solvent vs. solvent alone
Experimental: Three materials were placed on a heated balance at […] and had their weights observed every minute for 10 minutes, as a percent of original weight. The materials were: • 1. pure nitrapyrin, • 2. 25% w/w solution of nitrapyrin in sulfolane, and • 3. solution of 25% nitrapyrin salt with equimolar (on acid basis) amount of maleic-itaconic copolymer, also in sulfolane (nitrapyrin/polyanionic polymer salt).
Therefore, the disclosed nitrapyrin-organic acid ionic mixtures substantially reduce the volatilization of nitrapyrin.
Tests were run to determine the relative volatility of the nitrapyrin solution without polyanionic polymer.

[3] = solvent A dipropylene glycol, 20% w/w nitrapyrin
[4] = solvent B PT700, 20% w/w nitrapyrin
[5] = solvent C PT250, 20% w/w nitrapyrin
[6] = solvent D triethylene glycol, 20% w/w nitrapyrin
[7] = solvent E tripropylene glycol, 20% w/w nitrapyrin
[8] = solvent F propylene carbonate, 20% w/w nitrapyrin
[9] = solvent G triacetin, 20% w/w nitrapyrin
[10] = solvent H Agnique AMD810, 20% w/w nitrapyrin
[11] = solvent I Agnique AMD3L, 20% w/w nitrapyrin
[12] = solvent J Rhodiasolv ADMA10, 20% w/w nitrapyrin
[13] = solvent K Rhodiasolv ADMA810, 20% w/w nitrapyrin
[14] = solvent L Rhodiasolv PolarClean, 20% w/w nitrapyrin

| Molecule | grade of solution [1, 3] | grade of solution [1, 4] | grade of solution [1, 5] | grade of solution [1, 6] | grade of solution [1, 7] | grade of solution [1, 8] | grade of solution [1, 9] | grade of solution [1, 10] | grade of solution [1, 11] | grade of solution [1, 12] | grade of solution [1, 13] | grade of solution [1, 14] | also measured |
| --- | --- | --- | --- | --- | --- | --- | --- | --- | --- | --- | --- | --- | --- |
| adipic | 2 | 3 | 1 | 3 | 4 | 3 | 3 | 5 | 5 | 5 | 5 | 5 |  |
| Clc1cccc(C(Cl)(Cl)Cl)n1 [nitrapyrin without solvent, nitrapyrin] |  |  |  |  |  |  |  |  |  |  |  |  | weight as a percent of original weight ([2]; experiment time 0 min): 100.00%; weight as a percent of original weight ([2]; experiment time 1 min): 99.20%; weight as a percent of original weight ([2]; experiment time 2 min): 98.56%; weight as a percent of original weight ([2]; experiment time 3 min): 97.92%; weight as a percent of original weight ([2]; experiment time 4 min): 96.00%; weight as a percent of original weight ([2]; experiment time 5 min): 94.87%; weight as a percent of original weight ([2]; experiment time 6 min): 93.75%; weight as a percent of original weight ([2]; experiment time 7 min): 92.63%; weight as a percent of original weight ([2]; experiment time 8 min): 90.87%; weight as a percent of original weight ([2]; experiment time 9 min): 89.90%; weight as a percent of original weight ([2]; experiment time 10 min): 89.10%; nitrapyrin sulfolane volatility ratio ([2]; Delta 3-10): 401%; nitrapyrin sulfolane volatility ratio ([2]; Delta 4-10): 392%; nitrapyrin sulfolane volatility ratio ([2]; Delta 5-10): 393% |
| O=C(O)C(O)C(O)C(=O)O (centres unmarked) [tartaric] | 2 | 2 | 1 | 1 | 2 | 2 | 2 | 5 | 5 | 5 | 5 | 5 |  |
| O=C(O)CCC(=O)O [succinic] | 3 | 4 | 1 | 2 | 3 | 3 | 2 | 5 | 5 | 5 | 5 | 5 |  |
| malic | 2 | 4 | 1 | 2 | 2 | 3 | 3 | 5 | 5 | 5 | 5 | 5 |  |
